Structures are written as SMILES.

In the assay the target is Primary amine oxidase, liver isozyme (Bos taurus, UniProt Q29437). In words: Inhibition Assay. Particulars: pH 7.2; 30 °C. As to the method: In the following Examples, 0.9 mL aliquots of a solution of candidate inhibitor in 100 mM potassium phosphate buffer, pH 7.2 was mixed bovine plasma amine oxidase (0.1 mL, about […]) and incubated at 30° C. aerobically. Aliquots (0.1 mL) were periodically withdrawn using disposable calibrated Drummond micropipettes and diluted with 1.0 mL of benzylamine (5 mM in 50 mM sodium phosphate buffer, pH 7.2) in a 1 cm quartz cuvette (1.5 mL volume). The rate of oxidation of benzylamine to benzaldehyde was measured by recording the increase in absorbance at 250 nm for 1 minute and compared to the rate of benzylamine oxidation in a companion control solution of enzyme without inhibitor. The concentration of active BPAO was estimated from the rate of benzylamine oxidation. Inhibitory potency values (IC50 values) and partition values for inactivation of BPAO were measured at various times as in indicated in the Tables.
Sequence of Primary amine oxidase, liver isozyme (Q29437 17-762 limits assumed): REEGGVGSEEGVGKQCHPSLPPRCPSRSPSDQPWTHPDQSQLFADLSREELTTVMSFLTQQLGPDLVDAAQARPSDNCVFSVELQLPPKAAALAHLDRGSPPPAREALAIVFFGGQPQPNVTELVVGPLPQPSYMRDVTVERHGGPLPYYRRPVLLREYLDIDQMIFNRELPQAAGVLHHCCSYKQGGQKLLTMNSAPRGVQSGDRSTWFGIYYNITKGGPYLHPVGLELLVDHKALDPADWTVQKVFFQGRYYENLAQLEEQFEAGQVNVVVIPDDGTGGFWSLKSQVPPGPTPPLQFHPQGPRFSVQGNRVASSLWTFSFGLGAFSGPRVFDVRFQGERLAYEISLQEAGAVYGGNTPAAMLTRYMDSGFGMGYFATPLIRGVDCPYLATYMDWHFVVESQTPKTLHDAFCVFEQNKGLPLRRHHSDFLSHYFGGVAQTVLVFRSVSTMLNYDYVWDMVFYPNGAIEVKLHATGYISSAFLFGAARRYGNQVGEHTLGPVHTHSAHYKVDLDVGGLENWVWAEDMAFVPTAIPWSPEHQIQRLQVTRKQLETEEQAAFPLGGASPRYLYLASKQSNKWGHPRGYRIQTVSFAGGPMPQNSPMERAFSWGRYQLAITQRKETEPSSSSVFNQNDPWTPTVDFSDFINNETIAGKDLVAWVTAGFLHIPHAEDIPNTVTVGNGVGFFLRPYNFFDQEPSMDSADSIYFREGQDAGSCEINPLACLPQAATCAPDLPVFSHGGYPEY
Regarding `NCC#CCNCCc1ccccc1` [US9161922, Table 1, Compound 2], 500 µM corresponded to half-maximal inhibition (IC50).
`NCC#Cc1ccccc1` [US9161922, Table 1, Compound 3]: it took 700 µM to reach half-maximal inhibition (IC50).
As for `N#CC#CCN` [US9161922, Table 1, Compound 5], half-maximal inhibition (IC50) was put at 13 µM.
On to `NCC#CCN` [US9161922, Table 1, Compound 6], for which the half-maximal inhibitory concentration (IC50) (as a rule, the midpoint of a concentration-inhibition curve) was 20 µM.
The compound `NCC#CC#CCN` [US9161922, Table 1, Compound 7] returned a 50% inhibitory concentration (IC50) of 9 µM.
`NC/C=C/CN` [US9161922, Table 1, Compound 8] displayed a concentration for half-maximal inhibition (IC50) of 2000 µM.
In turn, `NC/C=C(\Cl)CN` [US9161922, Table 1, Compound 9] gave a half-maximal inhibitory concentration (IC50) of 24 µM.
As for `CC#CCCN` [US9161922, Table 2, Compound 2], the half-maximal inhibitory concentration (IC50) was determined as 10 µM.
On to `NCCC#Cc1ccccc1` [US9161922, Table 2, Compound 3], for which the midpoint of inhibition, the IC50, lay at 13.5 µM. The IC50 values of the last two compounds are within 1.5-fold of each other.
As to `NCCC#Cc1cccnc1` [US9161922, Table 2, Compound 6], inhibition was half-maximal at 3.6 µM (IC50).
`NCCC#CCc1ccccc1` [US9161922, Table 2, Compound 7] yielded a half-maximal inhibitory concentration (IC50) of 4.6 µM.
Under `CC#CC(CN)c1ccccc1` (stereo not drawn) [US9161922, Table 2, Compound 8] stands 108 µM; under `CC#CCC(N)c1ccccc1` (stereo not drawn) [US9161922, Table 2, Compound 9], 6500 µM.

(Values after BindingDB's records for patent US9161922 (Case Western Reserve University, 2015).)
